Assays:
Format in all cases: functional
[1] = system: Klebsiella pneumoniae; assay: Antibacterial activity against ESBL-producer Klebsiella pneumoniae K6 700603 at 50 uM by disc diffusion method; settings: read-out: DIZ
[2] = system: Enterococcus faecium; assay: Antibacterial activity against vancomycin-resistant Enterococcus faecium ATCC 700221 at 50 uM by disc diffusion method; settings: read-out: DIZ
[3] = system: Staphylococcus aureus; assay: Antibacterial activity against methicillin-resistant Staphylococcus aureus BAA-1747 at 25 uM in presence of 10 uM ciprofloxacin by disc diffusion method
[4] = system: Pseudomonas aeruginosa; assay: Antibacterial activity against Pseudomonas aeruginosa ATCC 15442 at 50 uM by disc diffusion method; settings: read-out: DIZ
[5] = system: Enterobacter cloacae; assay: Antibacterial activity against Enterobacter cloacae ATCC 23355 at 25 uM in presence of 10 uM ciprofloxacin by disc diffusion method
[6] = system: Klebsiella pneumoniae; assay: Antibacterial activity against ESBL-producer Klebsiella pneumoniae K6 700603 at 50 uM in presence of 10 uM ciprofloxacin by disc diffusion method
[7] = system: Pseudomonas aeruginosa; assay: Antibacterial activity against Pseudomonas aeruginosa ATCC 15442 at 50 uM in presence of 10 uM ciprofloxacin by disc diffusion method
[8] = system: Enterobacter cloacae; assay: Antibacterial activity against Enterobacter cloacae ATCC 23355 at 50 uM by disc diffusion method; settings: read-out: DIZ
[9] = system: Staphylococcus aureus; assay: Antibacterial activity against methicillin-resistant Staphylococcus aureus BAA-1747 at 50 uM in presence of 10 uM ciprofloxacin by disc diffusion method
[10] = system: Acinetobacter baumannii; assay: Antibacterial activity against ciprofloxacin-resistant Acinetobacter baumannii BAA-1605 at 50 uM by disc diffusion method; settings: read-out: DIZ
[11] = system: Enterococcus faecium; assay: Antibacterial activity against vancomycin-resistant Enterococcus faecium ATCC 700221 at 25 uM in presence of 10 uM ciprofloxacin by disc diffusion method
[12] = system: Acinetobacter baumannii; assay: Antibacterial activity against ciprofloxacin-resistant Acinetobacter baumannii BAA-1605 at 25 uM in presence of 10 uM ciprofloxacin by disc diffusion method
[13] = system: Enterococcus faecium; assay: Antibacterial activity against vancomycin-resistant Enterococcus faecium ATCC 700221 at 50 uM in presence of 10 uM ciprofloxacin by disc diffusion method
[14] = system: Staphylococcus aureus; assay: Antibacterial activity against methicillin-resistant Staphylococcus aureus BAA-1747 at 50 uM by disc diffusion method; settings: read-out: DIZ
[15] = system: Enterobacter cloacae; assay: Antibacterial activity against Enterobacter cloacae ATCC 23355 at 50 uM in presence of 10 uM ciprofloxacin by disc diffusion method
[16] = system: Pseudomonas aeruginosa; assay: Antibacterial activity against Pseudomonas aeruginosa ATCC 15442 at 25 uM in presence of 10 uM ciprofloxacin by disc diffusion method
[17] = system: Acinetobacter baumannii; assay: Antibacterial activity against ciprofloxacin-resistant Acinetobacter baumannii BAA-1605 at 50 uM in presence of 10 uM ciprofloxacin by disc diffusion method
[18] = system: Klebsiella pneumoniae; assay: Antibacterial activity against ESBL-producer Klebsiella pneumoniae K6 700603 at 25 uM in presence of 10 uM ciprofloxacin by disc diffusion method

## C=CCS[S+]([O-])CC=C (stereo not drawn) [ALLICIN]
[1]
  zone of inhibition at 50 µM: 13 mm
[2]
  zone of inhibition at 50 µM: 18 mm
[3]
  diameter of the inhibition zone (DIZ): 25 mm
[4]
  zone of inhibition at 50 µM: 0 mm
[5]
  diameter of the inhibition zone (DIZ): 31 mm
[6]
  diameter of the inhibition zone (DIZ): 24 mm
[7]
  diameter of the inhibition zone (DIZ): 27 mm
[8]
  zone of inhibition at 50 µM: 15 mm
[9]
  diameter of the inhibition zone (DIZ): 29 mm
[10]
  zone of inhibition at 50 µM: 24 mm
[11]
  diameter of the inhibition zone (DIZ): 10 mm
[12]
  diameter of the inhibition zone (DIZ): 20 mm
[13]
  diameter of the inhibition zone (DIZ): 17 mm
[14]
  zone of inhibition at 50 µM: 28 mm
[15]
  diameter of the inhibition zone (DIZ): 31 mm
[16]
  diameter of the inhibition zone (DIZ): 28 mm
[17]
  diameter of the inhibition zone (DIZ): 25 mm
[18]
  diameter of the inhibition zone (DIZ): 22 mm

Reference: ChEMBL document CHEMBL3864142, “Allicin-inspired thiolated fluoroquinolones as antibacterials against ESKAPE pathogens” (2016)
